Data from patent publication US6737383B1, “Herbicidal oxadiazolidines” (priority 1999, dated 2004).

Legend:
soybean = assay: Test B pre/postemergence soybean; format: in vivo, Glycine max
Procedure, shortened: (§1)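 Response is a visual 0-to-10 score relative to untreated plants, where 0 means no effect and 10 means complete control, taken twelve to sixteen days after application. Treatments went onto soil at planting and onto foliage of 1- to 4-leaf plants, using a surfactant-containing non-phytotoxic solvent.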

cocklebur = assay: Test B pre/postemergence cocklebur; format: in vivo, Xanthium strumarium
Procedure, shortened: as §1

corn = assay: Test B pre/postemergence corn; format: in vivo, Zea mays
Procedure, shortened: as §1

duck salad = assay: Test B flood test duck salad; format: in vivo, Heteranthera limosa
Procedure, shortened: (§2)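 Flood test on plants grown to the 2-leaf stage; treated plants kept in greenhouse twelve to sixteen days, then visually rated against controls on a 0 (no effect) to 10 (complete control) scale.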

rice = assay: Test B flood test rice; format: in vivo, Oryza sativa
Procedure, shortened: as §2

morningglory = assay: Test B pre/postemergence morningglory; format: in vivo, Ipomoea hederacea
Procedure, shortened: as §1

sugar beet = assay: Test B pre/postemergence sugar beet; format: in vivo, Beta vulgaris
Procedure, shortened: as §1

crabgrass = assay: Test B pre/postemergence crabgrass; format: in vivo, Digitaria sanguinalis
Procedure, shortened: as §1

pigweed = assay: Test B pre/postemergence pigweed; format: in vivo, Amaranthus retroflexus
Procedure, shortened: as §1

smallflower flatsedge = assay: Test B flood test smallflower flatsedge; format: in vivo, Cyperus difformis
Procedure, shortened: as §2

giant foxtail = assay: Test B pre/postemergence giant foxtail; format: in vivo, Setaria faberii
Procedure, shortened: as §1

purple nutsedge = assay: Test B pre/postemergence purple nutsedge; format: in vivo, Cyperus rotundus; details: Postemergence
Procedure, shortened: as §1

rape = assay: Test B pre/postemergence rape; format: in vivo, Brassica napus
Procedure, shortened: as §1

wheat = assay: Test B pre/postemergence wheat; format: in vivo, Triticum aestivum
Procedure, shortened: as §1

blackgrass = assay: Test B pre/postemergence blackgrass; format: in vivo, Alopecurus myosuroides
Procedure, shortened: as §1

velvetleaf = assay: Test B pre/postemergence velvetleaf; format: in vivo, Abutilon theophrasti
Procedure, shortened: as §1

[1] = Preemergence, Rate 62 g/ha, scale of 0 to 10 where 0 is no effect and 10 is complete control
[2] = Preemergence, Rate 250 g/ha, scale of 0 to 10 where 0 is no effect and 10 is complete control
[3] = Preemergence, Rate 500 g/ha, scale of 0 to 10 where 0 is no effect and 10 is complete control
[4] = Rate 62 g/ha, Postemergence, scale of 0 to 10 where 0 is no effect and 10 is complete control
[5] = Rate 125 g/ha, Postemergence, scale 0 to 10
[6] = Rate 125 g/ha, Preemergence, scale of 0 to 10 where 0 is no effect and 10 is complete control
[7] = Rate 500 g/ha, Postemergence, scale 0 to 10, 0 no effect, 10 complete control
[8] = Rate 62 g/ha, headed Pre-emergence (flood test species), scale 0 to 10 (0 no effect, 10 complete control)
[9] = Rate 125 g/ha, Pre-emergence, flood test species, scale 0 to 10 where 0 is no effect and 10 is complete control
[10] = Rate 250 g/ha, Pre-emergence, flood-test species, scale 0 to 10, 0 is no effect, 10 is complete control
[11] = Rate 500 g/ha, Pre-emergence, flood test species, scale 0 to 10 (0 no effect, 10 complete control)

## CC(C)N(C(=O)n1oc(=O)n(-c2cccnc2)c1=O)c1ccccc1 [Compound 235]
soybean; [1]
  Soybean plant response rating: 0
soybean; [2]
  Soybean plant response rating: 0
soybean; [3]
  Plant response rating, Soybean: 0
soybean; [4]
  Soybean plant response rating: 0
soybean; [5]
  Soybean plant response rating: 0
soybean; [6]
  Soybean plant response rating: 0
soybean; Rate 250 g/ha, Postemergence
  Plant response rating (0 to 10; 0 is no effect, 10 is complete control), Soybean: 0
soybean; [7]
  Soybean plant response rating: 0
cocklebur; [1]
  Cocklebur plant response rating: 0
cocklebur; [2]
  Cocklebur plant response rating: 0
cocklebur; [3]
  Plant response rating, Cocklebur: 0
cocklebur; [4]
  Cocklebur plant response rating: 0
cocklebur; [5]
  Cocklebur plant response rating: 0
cocklebur; [6]
  Cocklebur plant response rating: 0
cocklebur; Rate 250 g/ha, Postemergence
  Plant response rating (0 to 10; 0 is no effect, 10 is complete control), Cocklebur: 0
cocklebur; [7]
  Cocklebur plant response rating: 0
corn; [1]
  Corn plant response rating: 0
corn; [2]
  Corn plant response rating: 0
corn; [3]
  Plant response rating, Corn: 0
corn; [4]
  Corn plant response rating: 0
corn; [5]
  Corn plant response rating: 0
corn; [6]
  Corn plant response rating: 0
corn; Rate 250 g/ha, Postemergence
  Plant response rating (0 to 10; 0 is no effect, 10 is complete control), Corn: 0
corn; [7]
  Corn plant response rating: 0
Duck salad; [8]
  Ducksalad plant response rating: 0
Duck salad; [9]
  Ducksalad plant response rating: 0
Duck salad; [10]
  Ducksalad plant response rating: 0
Duck salad; [11]
  Ducksalad plant response rating: 0
rice; [8]
  Rice plant response rating: 0
rice; [9]
  Rice plant response rating: 0
rice; [10]
  Rice plant response rating: 0
rice; [11]
  Rice plant response rating: 0
morningglory; [1]
  Morningglory plant response rating: 0
morningglory; [2]
  Morningglory plant response rating: 0
morningglory; [3]
  Plant response rating, Morningglory: 0
morningglory; [4]
  Morningglory plant response rating: 2
morningglory; [5]
  Morningglory plant response rating: 2
morningglory; [6]
  Morningglory plant response rating: 0
morningglory; Rate 250 g/ha, Postemergence
  Plant response rating (0 to 10; 0 is no effect, 10 is complete control), Morningglory: 6
morningglory; [7]
  Morningglory plant response rating: 7
Sugar beet; [1]
  Sugarbeets plant response rating: 0
Sugar beet; [2]
  Sugarbeets plant response rating: 0
Sugar beet; [3]
  Plant response rating, Sugarbeets: 0
Sugar beet; [4]
  Sugarbeets plant response rating: 0
Sugar beet; [5]
  Sugarbeets plant response rating: 0
Sugar beet; [6]
  Sugarbeets plant response rating: 0
Sugar beet; Rate 250 g/ha, Postemergence
  Plant response rating (0 to 10; 0 is no effect, 10 is complete control), Sugarbeets: 0
Sugar beet; [7]
  Sugarbeets plant response rating: 0
crabgrass; [1]
  Crabgrass plant response rating: 0
crabgrass; [2]
  Crabgrass plant response rating: 0
crabgrass; [3]
  Plant response rating, Crabgrass: 0
crabgrass; [4]
  Crabgrass plant response rating: 0
crabgrass; [5]
  Crabgrass plant response rating: 0
crabgrass; [6]
  Crabgrass plant response rating: 0
crabgrass; Rate 250 g/ha, Postemergence
  Plant response rating (0 to 10; 0 is no effect, 10 is complete control), Crabgrass: 0
crabgrass; [7]
  Crabgrass plant response rating: 0
pigweed; [1]
  Redroot pigweed plant response rating: 0
pigweed; [2]
  Redroot pigweed plant response rating: 0
pigweed; [3]
  Plant response rating, Redroot pigweed: 0
pigweed; [4]
  Redroot pigweed plant response rating: 0
pigweed; [5]
  Redroot pigweed plant response rating: 0
pigweed; [6]
  Redroot pigweed plant response rating: 0
pigweed; Rate 250 g/ha, Postemergence
  Plant response rating (0 to 10; 0 is no effect, 10 is complete control), Redroot pigweed: 0
pigweed; [7]
  Redroot pigweed plant response rating: 0
Smallflower flatsedge; [8]
  S. Flatsedge plant response rating: 0
Smallflower flatsedge; [9]
  S. Flatsedge plant response rating: 0
Smallflower flatsedge; [10]
  S. Flatsedge plant response rating: 0
Smallflower flatsedge; [11]
  S. Flatsedge plant response rating: 0
Giant foxtail; [1]
  Giant foxtail plant response rating: 0
Giant foxtail; [2]
  Giant foxtail plant response rating: 0
Giant foxtail; [3]
  Plant response rating, Giant foxtail: 0
Giant foxtail; [4]
  Giant foxtail plant response rating: 0
Giant foxtail; [5]
  Giant foxtail plant response rating: 0
Giant foxtail; [6]
  Giant foxtail plant response rating: 0
Giant foxtail; Rate 250 g/ha, Postemergence
  Plant response rating (0 to 10; 0 is no effect, 10 is complete control), Giant foxtail: 0
Giant foxtail; [7]
  Giant foxtail plant response rating: 0
Purple nutsedge; Rate 62 g/ha, scale of 0 to 10 where 0 is no effect and 10 is complete control
  Nutsedge plant response rating: 0
Purple nutsedge; Rate 125 g/ha, scale 0 to 10
  Nutsedge plant response rating: 0
Purple nutsedge; Rate 250 g/ha
  Plant response rating (0 to 10; 0 is no effect, 10 is complete control), Nutsedge: 0
Purple nutsedge; Rate 500 g/ha, scale 0 to 10, 0 no effect, 10 complete control
  Nutsedge plant response rating: 0
rape; [1]
  Rape plant response rating: 0
rape; [2]
  Rape plant response rating: 0
rape; [3]
  Plant response rating, Rape: 0
rape; [4]
  Rape plant response rating: 0
rape; [5]
  Rape plant response rating: 0
rape; [6]
  Rape plant response rating: 0
rape; Rate 250 g/ha, Postemergence
  Plant response rating (0 to 10; 0 is no effect, 10 is complete control), Rape: 0
rape; [7]
  Rape plant response rating: 0
wheat; [1]
  Wheat plant response rating: 0
wheat; [2]
  Wheat plant response rating: 0
wheat; [3]
  Plant response rating, Wheat: 0
wheat; [4]
  Wheat plant response rating: 0
wheat; [5]
  Wheat plant response rating: 0
wheat; [6]
  Wheat plant response rating: 0
wheat; Rate 250 g/ha, Postemergence
  Plant response rating (0 to 10; 0 is no effect, 10 is complete control), Wheat: 0
wheat; [7]
  Wheat plant response rating: 0
blackgrass; [1]
  Blackgrass plant response rating: 0
blackgrass; [2]
  Blackgrass plant response rating: 0
blackgrass; [3]
  Plant response rating, Blackgrass: 0
blackgrass; [4]
  Blackgrass plant response rating: 0
blackgrass; [5]
  Blackgrass plant response rating: 0
blackgrass; [6]
  Blackgrass plant response rating: 0
blackgrass; Rate 250 g/ha, Postemergence
  Plant response rating (0 to 10; 0 is no effect, 10 is complete control), Blackgrass: 0
blackgrass; [7]
  Blackgrass plant response rating: 0
velvetleaf; [1]
  Velvetleaf plant response rating: 0
velvetleaf; [2]
  Velvetleaf plant response rating: 0
velvetleaf; [3]
  Plant response rating, Velvetleaf: 0
velvetleaf; [4]
  Velvetleaf plant response rating: 0
velvetleaf; [5]
  Velvetleaf plant response rating: 0
velvetleaf; [6]
  Velvetleaf plant response rating: 0
velvetleaf; Rate 250 g/ha, Postemergence
  Plant response rating (0 to 10; 0 is no effect, 10 is complete control), Velvetleaf: 0
velvetleaf; [7]
  Velvetleaf plant response rating: 0
